Assays:
[1] = test system: MEG-01 (Chronic Myelogenous Leukemia); test: Bliss excess, mean over the matrix (fraction); higher = more synergy
In short: (§1)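 Cell lines in DMEM/F12 or RPMI with 10% FBS were plated in 1536-well plates, held 24 hours at 37°C, 5% CO2, then given two-drug dose matrices for 72 hours (DMSO typically 0.2%). Viability was read by CellTiter-Glo 2.0 luminescence and scaled as inhibition from 0 (vehicle wells) to 1 (blank wells). Combination Emax is the second-highest inhibition in the matrix; Bliss excess is observed combination effect minus expected EA + EB − EA·EB, EA and EB being single-agent effects.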

SK-MEL-1 (Melanoma) = test: as above
In short: as §1

[2] = test system: ETK-1 (Biliary Tract Carcinoma); test: as above
In short: as §1

[3] = test system: SW948 (Colorectal Carcinoma); test: as above
In short: as §1

[4] = test system: BICR78 (Oral Cavity Carcinoma); test: as above
In short: as §1

[5] = test system: DOK (Oral Cavity Carcinoma); test: as above
In short: as §1

HCC38 (Breast Carcinoma) = test: as above
In short: as §1

CS1 (Chondrosarcoma) = test: as above
In short: as §1

[6] = test system: KG-1 (Acute Myeloid Leukemia); test: as above
In short: as §1

[7] = test system: HOP-92 (Non-Small Cell Lung Carcinoma); test: as above
In short: as §1

HuO9 (Osteosarcoma) = test: as above
In short: as §1

EW-22 (Ewing's Sarcoma) = test: as above
In short: as §1

[8] = test system: PA-TU-8902 (Pancreatic Carcinoma); test: as above
In short: as §1

[9] = test system: JHH-6 (Hepatocellular Carcinoma); test: as above
In short: as §1

H4 (Low Grade Glioma) = test: combination Emax (second highest fraction inhibited in the dose matrix, 72 h); higher = more inhibition; extreme values may be limits of the assay
In short: as §1

[10] = test system: KG-1 (Acute Myeloid Leukemia); test: as above
In short: as §1

[11] = test system: HOP-92 (Non-Small Cell Lung Carcinoma); test: as above
In short: as §1

[12] = test system: MES-SA (Other Solid Carcinomas); test: as above
In short: as §1

[13] = test system: SK-UT-1 (Other Solid Carcinomas); test: as above
In short: as §1

[14] = test system: EKVX (Non-Small Cell Lung Carcinoma); test: as above
In short: as §1
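For Bliss excess, mean over the matrix in this document: after 72 h of two-drug dosing.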

Structure (SMILES)	Bliss excess [1]	Bliss excess (SK-MEL-1 (Melanoma))	Bliss excess [2]	Bliss excess [3]	Bliss excess [4]	Bliss excess [5]	Bliss excess (HCC38 (Breast Carcinoma))	Bliss excess (CS1 (Chondrosarcoma))	Bliss excess [6]	Bliss excess [7]	Bliss excess (HuO9 (Osteosarcoma))	Bliss excess (EW-22 (Ewing's Sarcoma))	Bliss excess [8]	Bliss excess [9]	combination Emax (H4 (Low Grade Glioma))	combination Emax [10]	combination Emax [11]	combination Emax [12]	combination Emax [13]	combination Emax [14]
CN(CCO)CC[C@H](CSc1ccccc1)Nc1ccc(S(=O)(=O)NC(=O)c2ccc(N3CCC([C@@H](O)c4ccccc4-c4ccc(Cl)cc4)CC3)cc2)cc1S(=O)(=O)C(F)(F)F [AZD4320] + C=CCn1c(=O)c2cnc(Nc3ccc(N4CCN(C)CC4)cc3)nc2n1-c1cccc(C(C)(C)O)n1 [AZD1775] (first compound max 1 µM, partner max 1 µM)	0.0516	-0.0091	-0.0295	0.0744	0.0149	-0.0273	0.0723	-0.0017	0.108	0.101	0.0484	0.0897	-0.0357	-0.0095	1	1	0.974	0.865	0.693	0.244
CN(CCO)CC[C@H](CSc1ccccc1)Nc1ccc(S(=O)(=O)NC(=O)c2ccc(N3CCC([C@@H](O)c4ccccc4-c4ccc(Cl)cc4)CC3)cc2)cc1S(=O)(=O)C(F)(F)F [AZD4320] + CCN(CCO)CCCOc1ccc2c(Nc3cc(CC(=O)Nc4cccc(F)c4)[nH]n3)ncnc2c1 [AZD2811] (first compound max 1 µM, 7x7, partner max 1 µM)	-0.0205	-0.0353	-0.0297	-0.0196	-0.0008	0.0043	0.044	0.0355	0.0803	0.0573	0.0376	0.0467	-0.0403	0.0044	0.543	0.966	0.968	0.513	0.414	0.155
CN(CCO)CC[C@H](CSc1ccccc1)Nc1ccc(S(=O)(=O)NC(=O)c2ccc(N3CCC([C@@H](O)c4ccccc4-c4ccc(Cl)cc4)CC3)cc2)cc1S(=O)(=O)C(F)(F)F [AZD4320] + CN(C)CCCOc1ccc(-c2ccc3ncc4c(c3c2)n(C2CCOCC2)c(=O)n4C)cn1 [AZD0156] (first compound max 1 µM, 7x7, partner max 1 µM)	-0.0262	-0.0254	-0.0509	-0.0566	-0.0268	-0.0332	-0.0504	-0.0477	0.0215	-0.0014	0.0143	0.0228	-0.0511	-0.0367	0.247	0.952	0.899	0.128	0.0694	0.155
CN(CCO)CC[C@H](CSc1ccccc1)Nc1ccc(S(=O)(=O)NC(=O)c2ccc(N3CCC([C@@H](O)c4ccccc4-c4ccc(Cl)cc4)CC3)cc2)cc1S(=O)(=O)C(F)(F)F [AZD4320] + C[C@@H]1COCCN1C2=NC(=NC(=C2)C3(CC3)[S@](=N)(=O)C)C4=C5C=CNC5=NC=C4 [AZD6738] (first compound max 1 µM, 7x7, partner max 10 µM)	-0.0267	-0.0757	-0.0463	-0.0873	0.0039	-0.0269	0.0306	-0.0499	0.0279	0.0076	-0.0242	0.0762	-0.0378	-0.023	0.9	1	0.976	0.691	0.919	0.252
CN(CCO)CC[C@H](CSc1ccccc1)Nc1ccc(S(=O)(=O)NC(=O)c2ccc(N3CCC([C@@H](O)c4ccccc4-c4ccc(Cl)cc4)CC3)cc2)cc1S(=O)(=O)C(F)(F)F [AZD4320] + C[C@@H](Nc1cc(F)cc(F)c1)c1cc(C(=O)N(C)C)cc2c(=O)cc(N3CCOCC3)oc12 [AZD8186] (first compound max 1 µM, 7x7, partner max 3 µM)	0.0022	-0.0523	-0.046	-0.101	-0.0594	-0.0195	-0.0028	-0.0411	0.066	0.0329	0.0515	-0.0261	-0.0139	-0.0164	0.583	0.953	0.967	0.297	0.273	0.308
CN(CCO)CC[C@H](CSc1ccccc1)Nc1ccc(S(=O)(=O)NC(=O)c2ccc(N3CCC([C@@H](O)c4ccccc4-c4ccc(Cl)cc4)CC3)cc2)cc1S(=O)(=O)C(F)(F)F [AZD4320] + Cc1cc2ncnn2cc1Nc1ncc2c(n1)n(C1CCOCC1)c(=O)n2C [AZD7648] (first compound max 1 µM, 7x7, partner max 10 µM)	0.0304	-0.025	-0.0639	-0.0233	-0.0167	-0.0178	-0.0694	-0.02	0.0526	-0.0034	0.0482	-0.0165	-0.0429	-0.024	0.204	0.966	0.891	0.226	0.163	0.237
